Experimental data published in ChEMBL document CHEMBL3352346, “Optimization of sphingosine-1-phosphate-1 receptor agonists: effects of acidic, basic, and zwitterionic chemotypes on pharmacokinetic and pharmacodynamic profiles” (J Med Chem, 2014).

What was measured:
[1] = test system: Canis familiaris; assay: (§1) Half life in Beagle dog at 1 mg/kg, iv or 2 mg/kg, po using DMSO/10%(w/v) Kleptose, 0.9% saline(aq) (2%/98%); assay type: ADME, organism-based, Canis lupus familiaris; details: in vivo
[2] = target: Sphingosine 1-phosphate receptor 1 (Homo sapiens, UniProt P21453); assay: Agonist activity at human S1P1R expressed in RH7777 membranes assessed as [35S]GTPgammaS binding after 30 mins; assay type: functional, cell membranes
Sequence of Sphingosine 1-phosphate receptor 1 (P21453 whole entry): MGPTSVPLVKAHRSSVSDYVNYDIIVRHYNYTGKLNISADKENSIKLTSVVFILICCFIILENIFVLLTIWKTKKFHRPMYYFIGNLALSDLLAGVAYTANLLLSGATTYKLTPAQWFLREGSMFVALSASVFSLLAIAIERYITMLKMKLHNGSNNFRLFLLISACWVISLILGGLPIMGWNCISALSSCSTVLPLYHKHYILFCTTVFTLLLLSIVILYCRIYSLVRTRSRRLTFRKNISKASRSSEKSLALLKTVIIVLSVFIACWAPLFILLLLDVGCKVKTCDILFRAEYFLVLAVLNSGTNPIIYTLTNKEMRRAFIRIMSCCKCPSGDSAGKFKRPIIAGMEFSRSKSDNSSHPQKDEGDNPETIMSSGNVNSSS

[3] = Intrinsic clearance in dog hepatocyte; assay type: ADME, cell-based, Canis lupus familiaris; details: hepatocytes
[4] = Fraction unbound in dog blood; assay type: ADME, tissue-based, Canis lupus familiaris
[5] = target: T1, Cytochrome P450 1A2 (Homo sapiens, UniProt P05177); assay: Inhibition of CYP1A2 (unknown origin); assay type: ADME
T1 sequence (P05177 whole entry): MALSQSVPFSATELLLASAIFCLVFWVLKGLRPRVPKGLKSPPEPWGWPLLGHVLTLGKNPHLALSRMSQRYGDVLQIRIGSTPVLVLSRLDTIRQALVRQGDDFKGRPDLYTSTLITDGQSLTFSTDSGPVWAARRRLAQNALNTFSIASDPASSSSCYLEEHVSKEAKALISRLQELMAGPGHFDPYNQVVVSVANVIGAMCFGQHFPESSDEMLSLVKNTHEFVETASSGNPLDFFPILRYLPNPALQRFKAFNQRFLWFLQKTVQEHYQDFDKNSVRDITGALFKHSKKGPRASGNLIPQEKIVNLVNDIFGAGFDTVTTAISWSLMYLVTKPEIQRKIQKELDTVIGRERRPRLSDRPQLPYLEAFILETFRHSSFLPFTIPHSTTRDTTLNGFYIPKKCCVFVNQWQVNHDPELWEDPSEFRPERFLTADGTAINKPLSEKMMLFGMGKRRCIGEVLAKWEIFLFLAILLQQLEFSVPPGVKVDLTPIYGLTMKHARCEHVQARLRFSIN

[6] = target: Cytochrome P450 2C19 (Homo sapiens, UniProt P33261); assay: Inhibition of CYP2C19 (unknown origin); assay type: ADME
Sequence of Cytochrome P450 2C19 (P33261 whole entry): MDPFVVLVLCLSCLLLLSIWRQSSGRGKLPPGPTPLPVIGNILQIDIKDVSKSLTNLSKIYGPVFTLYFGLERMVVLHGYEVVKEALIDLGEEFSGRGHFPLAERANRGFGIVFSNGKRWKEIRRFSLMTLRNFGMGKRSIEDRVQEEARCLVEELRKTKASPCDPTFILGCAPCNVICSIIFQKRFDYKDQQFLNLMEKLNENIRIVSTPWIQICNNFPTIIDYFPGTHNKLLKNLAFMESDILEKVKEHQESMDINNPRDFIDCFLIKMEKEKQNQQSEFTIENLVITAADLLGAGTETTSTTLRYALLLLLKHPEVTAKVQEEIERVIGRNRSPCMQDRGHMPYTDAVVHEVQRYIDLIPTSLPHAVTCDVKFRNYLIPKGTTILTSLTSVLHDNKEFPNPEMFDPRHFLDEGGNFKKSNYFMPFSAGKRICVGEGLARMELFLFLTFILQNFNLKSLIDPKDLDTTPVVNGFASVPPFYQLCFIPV

[7] = Fraction unbound in human blood; assay type: ADME, tissue-based
[8] = target: Cytochrome P450 2C9 (Homo sapiens, UniProt P11712); assay: Inhibition of CYP2C9 (unknown origin); assay type: ADME
Sequence of Cytochrome P450 2C9 (P11712 whole entry): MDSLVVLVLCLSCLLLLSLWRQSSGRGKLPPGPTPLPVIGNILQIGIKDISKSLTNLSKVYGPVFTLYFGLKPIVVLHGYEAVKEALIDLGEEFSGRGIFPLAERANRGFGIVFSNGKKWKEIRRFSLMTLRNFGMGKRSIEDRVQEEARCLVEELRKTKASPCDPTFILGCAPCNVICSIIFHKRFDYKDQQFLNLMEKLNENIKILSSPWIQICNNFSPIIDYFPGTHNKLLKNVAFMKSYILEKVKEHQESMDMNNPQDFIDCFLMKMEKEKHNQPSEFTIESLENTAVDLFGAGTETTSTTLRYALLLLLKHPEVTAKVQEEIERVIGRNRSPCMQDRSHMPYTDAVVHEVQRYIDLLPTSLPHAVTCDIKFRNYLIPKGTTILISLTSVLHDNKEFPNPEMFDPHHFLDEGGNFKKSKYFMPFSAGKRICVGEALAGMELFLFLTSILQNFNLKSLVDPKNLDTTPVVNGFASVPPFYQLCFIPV

[9] = test system: Canis familiaris; assay: (§2) Oral bioavailability in Beagle dog at 2 mg/kg using Methylcellulose(aq), 1% (w/v) suspension; assay type: ADME, organism-based, Canis lupus familiaris; details: in vivo
[10] = target: Cytochrome P450 2D6 (Homo sapiens, UniProt P10635); assay: Inhibition of CYP2D6 (unknown origin); assay type: ADME
Sequence of Cytochrome P450 2D6 (P10635 whole entry): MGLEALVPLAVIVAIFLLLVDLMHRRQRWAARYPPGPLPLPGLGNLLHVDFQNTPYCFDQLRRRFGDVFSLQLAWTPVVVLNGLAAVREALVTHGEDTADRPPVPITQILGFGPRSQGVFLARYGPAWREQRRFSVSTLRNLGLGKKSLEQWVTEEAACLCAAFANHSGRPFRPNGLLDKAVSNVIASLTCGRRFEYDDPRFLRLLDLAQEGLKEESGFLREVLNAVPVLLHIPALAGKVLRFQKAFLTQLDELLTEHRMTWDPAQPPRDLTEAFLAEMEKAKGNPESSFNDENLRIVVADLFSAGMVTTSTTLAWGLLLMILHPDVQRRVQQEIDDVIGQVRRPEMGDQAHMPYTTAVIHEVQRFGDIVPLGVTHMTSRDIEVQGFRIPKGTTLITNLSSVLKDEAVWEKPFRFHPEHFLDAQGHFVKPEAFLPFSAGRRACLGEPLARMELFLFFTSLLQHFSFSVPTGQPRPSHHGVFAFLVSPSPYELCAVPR

[11] = test system: Canis familiaris; assay: (§3) Volume of distribution at steady state in Beagle dog at 1 mg/kg, iv or 2 mg/kg, po using DMSO/10%(w/v) Kleptose, 0.9% saline(aq) (2%/98%); assay type: ADME, organism-based, Canis lupus familiaris; details: in vivo
[12] = test system: Rattus norvegicus; assay: (§4) Oral bioavailability in CD rat at 3 mg/kg using Methylcellulose(aq), 1% (w/v) suspension; assay type: ADME, organism-based; details: in vivo
[13] = Volume of distribution at steady state in CD rat at 1 mg/kg, iv or 3 mg/kg, po using DMSO/10%(w/v) Kleptose, 0.9% saline(aq) (5%/95%); assay type: ADME, organism-based; details: in vivo, read-out: Vdss
[14] = Half life in CD rat at 1 mg/kg, iv or 3 mg/kg, po using DMSO/10%(w/v) Kleptose, 0.9% saline(aq) (5%/95%); assay type: ADME, organism-based; details: in vivo
[15] = test system: Rattus norvegicus; assay: Reduction in lymphocyte level in po dosed male Lewis rat; assay type: functional, organism-based
[16] = target: Sphingosine 1-phosphate receptor 3 (Homo sapiens, UniProt Q99500); assay: Agonist activity at human S1P3R expressed in RBL membranes assessed as [35S]GTPgammaS binding after 30 mins; assay type: functional, cell membranes
Sequence of Sphingosine 1-phosphate receptor 3 (Q99500 whole entry): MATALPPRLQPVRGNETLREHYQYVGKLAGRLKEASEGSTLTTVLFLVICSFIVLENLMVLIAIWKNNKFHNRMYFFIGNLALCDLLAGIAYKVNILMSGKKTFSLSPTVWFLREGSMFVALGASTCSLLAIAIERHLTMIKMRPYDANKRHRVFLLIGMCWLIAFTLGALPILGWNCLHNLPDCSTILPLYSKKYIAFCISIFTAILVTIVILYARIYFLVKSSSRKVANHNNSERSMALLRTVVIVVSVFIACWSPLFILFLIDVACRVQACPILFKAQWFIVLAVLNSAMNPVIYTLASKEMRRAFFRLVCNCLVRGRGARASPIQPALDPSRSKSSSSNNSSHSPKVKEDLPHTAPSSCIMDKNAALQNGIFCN

[17] = Clearance in CD rat at 1 mg/kg, iv or 3 mg/kg, po using DMSO/10%(w/v) Kleptose, 0.9% saline(aq) (5%/95%); assay type: ADME, organism-based; details: in vivo
[18] = test system: Rattus norvegicus; assay: Reduction of lymphocyte count in rat at 1 mg/kg, po measured at 24 hrs relative to control; assay type: functional; design: scale not given: the % may be the effect or the level left
[19] = Half life in po dosed C57BL/6 mouse at 1 mg/kg, iv using DMSO/1% methylcellulose 1:99 (w/v); assay type: ADME, organism-based; design: dose 1 mg/kg, route oral; details: in vivo
[20] = Oral bioavailability in C57BL/6 mouse at 3 mg/kg using 1% methylcellulose (w/v); assay type: ADME, organism-based; details: in vivo
[21] = test system: Rattus norvegicus; assay: Reduction of lymphocyte count in rat at 1 mg/kg, po measured at 4 hrs relative to control; assay type: functional; design: scale not given: the % may be the effect or the level left
[22] = test system: Mus musculus; assay: Volume of distribution at steady state in po dosed C57BL/6 mouse at 1 mg/kg, iv using DMSO/1% methylcellulose 1:99 (w/v); assay type: ADME, organism-based; design: dose 1 mg/kg, route oral; details: in vivo
[23] = test system: Rattus norvegicus; assay: Reduction of lymphocyte count in rat at 1 mg/kg, po measured at 8 hrs relative to control; assay type: functional; design: scale not given: the % may be the effect or the level left
[24] = Fraction unbound in rat blood; assay type: ADME, tissue-based
[25] = Clearance in CD rat at 1 mg/kg, iv or 3 mg/kg, po using DMSO/10%(w/v) Kleptose, 0.9% saline(aq) (2%/98%); assay type: ADME, organism-based; details: in vivo
[26] = Dissociation constant, pKa of the compound; assay type: physicochemical
[27] = Inhibition of CYP3A4VR (unknown origin); assay type: ADME, Homo sapiens
[28] = Half life in CD rat at 1 mg/kg, iv or 3 mg/kg, po using DMSO/10%(w/v) Kleptose, 0.9% saline(aq) (2%/98%); assay type: ADME, organism-based; details: in vivo
[29] = as §2; assay type: ADME, organism-based, Canis lupus familiaris; details: beagle, in vivo
[30] = as §3; assay type: ADME, organism-based, Canis lupus familiaris; details: beagle, in vivo, read-out: Vdss
[31] = as §4; assay type: ADME, organism-based; details: CD, in vivo
[32] = test system: Rattus norvegicus; assay: Reduction of lymphocyte count in rat at 1 mg/kg, po measured at 2 to 12 hrs relative to control; assay type: functional
[33] = Volume of distribution at steady state in CD rat at 1 mg/kg, iv or 3 mg/kg, po using DMSO/10%(w/v) Kleptose, 0.9% saline(aq) (2%/98%); assay type: ADME, organism-based; details: in vivo, read-out: Vdss
[34] = test system: Hepatocyte; assay: Intrinsic clearance in rat hepatocyte; assay type: ADME, cell-based; details: hepatocytes
[35] = Inhibition of CYP3A4VG (unknown origin); assay type: ADME, Homo sapiens
[36] = Oral bioavailability in C57BL/6 mouse at 3 mg/kg using DMSO/1% methylcellulose 1:99 (w/v); assay type: ADME, organism-based; details: in vivo
[37] = Fraction unbound in cynomolgus monkey blood; assay type: ADME, tissue-based, Macaca fascicularis
[38] = Volume of distribution at steady state in cynomolgus monkey at 1 mg/kg, iv or 3 mg/kg, po using DMSO/10%(w/v) Kleptose, 0.9% saline(aq) (2%/98%); assay type: ADME, organism-based, Macaca fascicularis; details: in vivo, read-out: Vdss
[39] = as §1; assay type: ADME, organism-based, Canis lupus familiaris; details: beagle, in vivo
[40] = Clearance in cynomolgus monkey at 1 mg/kg, iv or 3 mg/kg, po using DMSO/10%(w/v) Kleptose, 0.9% saline(aq) (2%/98%); assay type: ADME, organism-based, Macaca fascicularis; details: in vivo
[41] = Solubility in fed-state simulated intestinal fluid at pH 6.5 after 24 hrs; assay type: ADME
[42] = target: Albumin (Homo sapiens, UniProt P02768); assay: Fraction unbound as a percentage in human serum albumin; assay type: ADME
Sequence of Albumin (P02768 whole entry): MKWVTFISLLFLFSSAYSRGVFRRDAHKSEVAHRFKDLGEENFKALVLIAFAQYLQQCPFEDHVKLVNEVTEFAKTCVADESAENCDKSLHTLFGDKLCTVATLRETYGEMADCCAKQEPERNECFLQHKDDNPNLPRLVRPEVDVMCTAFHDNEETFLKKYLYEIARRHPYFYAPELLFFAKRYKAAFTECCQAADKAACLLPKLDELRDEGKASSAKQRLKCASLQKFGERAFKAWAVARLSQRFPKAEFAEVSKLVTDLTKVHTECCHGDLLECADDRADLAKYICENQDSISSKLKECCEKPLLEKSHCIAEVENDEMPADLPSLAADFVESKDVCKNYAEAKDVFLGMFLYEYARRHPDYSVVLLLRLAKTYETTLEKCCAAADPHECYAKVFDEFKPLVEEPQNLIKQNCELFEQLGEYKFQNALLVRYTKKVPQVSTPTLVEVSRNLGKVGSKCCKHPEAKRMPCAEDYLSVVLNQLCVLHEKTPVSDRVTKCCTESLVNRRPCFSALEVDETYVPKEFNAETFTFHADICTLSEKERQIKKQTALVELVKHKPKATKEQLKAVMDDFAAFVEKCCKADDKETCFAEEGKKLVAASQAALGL

[43] = Permeability in MDCK cells; assay type: ADME, cell-based, Canis lupus familiaris; details: dog, read-out: permeability
[44] = Clearance in Beagle dog at 1 mg/kg, iv or 2 mg/kg, po using DMSO/10%(w/v) Kleptose, 0.9% saline(aq) (2%/98%); assay type: ADME, organism-based, Canis lupus familiaris; details: in vivo
[45] = Half life in cynomolgus monkey at 1 mg/kg, iv or 3 mg/kg, po using DMSO/10%(w/v) Kleptose, 0.9% saline(aq) (2%/98%); assay type: ADME, organism-based, Macaca fascicularis; details: in vivo
[46] = Solubility in fed-state simulated intestinal fluid at pH 5 after 24 hrs; assay type: ADME
[47] = Oral bioavailability in cynomolgus monkey at 3 mg/kg using Methylcellulose(aq), 1% (w/v) suspension; assay type: ADME, organism-based, Macaca fascicularis; details: in vivo
[48] = Intrinsic clearance in cynomolgus monkey hepatocyte; assay type: ADME, cell-based, Macaca fascicularis; details: hepatocytes, read-out: CLH

## CC(C)Oc1ncc(-c2nc(-c3cccc4c3OCCNC4CCCC(=O)O)no2)cc1Cl (single isomer, unassigned; enantiomer 1)
[1]
  t1/2: 0.84 h
[2]
  EC50: 0.0398 µM
[3]
  CLH: 4 mL/min/g
[4]
  Fu: 0.01
[5]
  IC50: > 50 µM
[6]
  IC50: > 50 µM
[7]
  Fu: 0.014
[8]
  IC50: > 50 µM
[9]
  F: 50%
[10]
  IC50: > 50 µM
[11]
  Vdss: 1.5 L/kg
[12]
  F: 87%
[13]
  Vd: 0.6 L/kg
[14]
  half-life: 6.4 h
[15]
  IC50: 0.091 µM
[16]
  EC50: 20 µM
[17]
  clearance: 1.03 mL/min/kg

## CC(C)Oc1ccc(-c2nc(-c3ccc4c(c3)CCNCC4)no2)cc1C#N
[2]
  EC50: 0.0251 µM
[18]
  Activity: 6%
[19]
  half-life: 6.9 h
[20]
  bioavailability: 63%
[21]
  Activity: 75%
[22]
  Vdss: 9.1 L/kg
[16]
  EC50: > 31.6 µM
[23]
  Activity: 82%

## CC(C)Oc1ncc(-c2nc(-c3cccc4c3OCCNC4CCCC(=O)O)no2)cc1Cl (stereo in doubt; 31b)
[24]
  fraction unbound: 0.004
[1]
  t1/2: 1.8 h
[2]
  EC50: 0.0501 µM
[3]
  CLH: 1.7 mL/min/g
[25]
  clearance: 0.71 mL/min/kg
[26]
  pKa: 8.09
[4]
  fraction unbound: 0.015
[5]
  IC50: > 50 µM
[6]
  IC50: > 50 µM
[27]
  IC50: > 50 µM
[28]
  half-life: 6.6 h
[7]
  fraction unbound: 0.016
[8]
  IC50: > 50 µM
[29]
  bioavailability: 67%
[10]
  IC50: > 50 µM
[30]
  Vd: 0.9 L/kg
[31]
  bioavailability: 78%
[32]
  inhibition in vivo at 1 mg/kg: > 80%
[15]; Rattus norvegicus, Lewis
  IC50: 0.099 µM
[33]
  Vd: 0.4 L/kg
[16]
  EC50: 10 µM
[34]
  CLH: < 0.9 mL/min/g
[35]
  IC50: > 50 µM

## CC(C)Oc1ccc(-c2nc(-c3ccc4c(c3)CCNCC4)no2)cc1Cl
[2]
  EC50: 0.158 µM
[19]
  half-life: 9.5 h
[36]
  bioavailability: 59%
[22]
  Vdss: 7.6 L/kg
[16]
  EC50: > 31.6 µM

## CC(C)Oc1ccc(-c2nc(-c3cccc4c3cnn4CCC(=O)[O-])no2)cc1Cl.[Na+]
[24]
  fraction unbound: 0.0017
[37]
  fraction unbound: 0.0018
[38]
  Vd: 0.4 L/kg
[39]
  half-life: 3.9 h
[2]
  EC50: 0.02 µM
[3]
  CLH: < 1.7 mL/min/g
[25]
  clearance: 2 mL/min/kg
[4]
  fraction unbound: 0.002
[5]
  IC50: > 50 µM
[40]
  clearance: 3 mL/min/kg
[6]
  IC50: > 50 µM
[27]
  IC50: 25 µM
[41]
  solubility at 24 h: 11 µg/mL
[28]
  half-life: 7.5 h
[42]
  fraction unbound: 0.012
[43]
  Papp: 20.3 ×10⁻⁶ cm/s
[7]
  fraction unbound: 0.001
[44]
  clearance: 4 mL/min/kg
[8]
  IC50: 7 µM
[29]
  bioavailability: 94%
[10]
  IC50: > 50 µM
[45]
  half-life: 1.2 h
[46]
  solubility at 24 h: 44 µg/mL
[30]
  Vd: 1 L/kg
[31]
  bioavailability: 96%
[47]
  bioavailability: 59%
[48]
  CLint scaled: < 0.9 mL/min/kg
[15]; Rattus norvegicus, Lewis
  IC50: 0.117 µM
[33]
  Vd: 1 L/kg
[16]
  EC50: > 31.6 µM
[34]
  CLH: < 0.9 mL/min/g
[35]
  IC50: 28 µM
